Assay results: ChEMBL document CHEMBL1150510 (Bioorg Med Chem Lett, 1997)
pKi: −log10 of the molar value.

Assays:
[1] = target: Serotonin 2 (5-HT2) receptor (Homo sapiens, UniProt P41595+P28223+P28335); experiment: In vitro binding affinity of compound against neuronal 5-hydroxytryptamine 2 receptor; format: protein assay
[2] = target: T1, Adrenergic receptor alpha-1 (Homo sapiens, UniProt P35348+P25100+P35368); experiment: In vitro binding affinity of compound against Alpha-1 adrenergic receptor; format: protein assay
T1 sequence (P35348 whole entry): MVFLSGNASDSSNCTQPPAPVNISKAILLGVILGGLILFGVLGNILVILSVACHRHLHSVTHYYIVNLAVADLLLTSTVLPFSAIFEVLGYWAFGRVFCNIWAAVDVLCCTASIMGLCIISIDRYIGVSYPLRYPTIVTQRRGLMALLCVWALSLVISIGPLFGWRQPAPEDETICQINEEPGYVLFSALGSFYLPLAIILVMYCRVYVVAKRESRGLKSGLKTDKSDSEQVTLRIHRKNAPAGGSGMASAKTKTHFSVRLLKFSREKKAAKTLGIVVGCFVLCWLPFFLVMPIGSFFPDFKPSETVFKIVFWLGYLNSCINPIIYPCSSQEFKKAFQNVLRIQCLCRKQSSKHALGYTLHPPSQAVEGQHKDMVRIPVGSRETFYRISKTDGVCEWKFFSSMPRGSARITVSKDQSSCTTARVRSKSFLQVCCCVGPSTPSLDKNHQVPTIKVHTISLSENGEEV
T1 sequence (P25100 whole entry): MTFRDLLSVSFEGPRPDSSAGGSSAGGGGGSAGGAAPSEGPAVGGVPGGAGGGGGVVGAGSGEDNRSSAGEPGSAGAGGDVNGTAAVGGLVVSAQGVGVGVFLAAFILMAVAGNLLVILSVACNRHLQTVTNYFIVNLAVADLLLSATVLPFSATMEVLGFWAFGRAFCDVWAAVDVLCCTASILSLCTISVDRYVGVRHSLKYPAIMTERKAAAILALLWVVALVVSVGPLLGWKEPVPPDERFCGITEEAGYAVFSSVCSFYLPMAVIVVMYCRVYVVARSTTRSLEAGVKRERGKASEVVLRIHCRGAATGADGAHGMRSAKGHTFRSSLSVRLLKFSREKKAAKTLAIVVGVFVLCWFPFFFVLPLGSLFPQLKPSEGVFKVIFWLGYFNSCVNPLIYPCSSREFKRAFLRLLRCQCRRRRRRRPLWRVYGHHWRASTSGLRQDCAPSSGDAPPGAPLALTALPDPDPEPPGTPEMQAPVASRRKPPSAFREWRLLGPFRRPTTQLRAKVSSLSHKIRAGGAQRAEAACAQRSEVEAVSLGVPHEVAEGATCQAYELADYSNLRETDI
T1 sequence (P35368 whole entry): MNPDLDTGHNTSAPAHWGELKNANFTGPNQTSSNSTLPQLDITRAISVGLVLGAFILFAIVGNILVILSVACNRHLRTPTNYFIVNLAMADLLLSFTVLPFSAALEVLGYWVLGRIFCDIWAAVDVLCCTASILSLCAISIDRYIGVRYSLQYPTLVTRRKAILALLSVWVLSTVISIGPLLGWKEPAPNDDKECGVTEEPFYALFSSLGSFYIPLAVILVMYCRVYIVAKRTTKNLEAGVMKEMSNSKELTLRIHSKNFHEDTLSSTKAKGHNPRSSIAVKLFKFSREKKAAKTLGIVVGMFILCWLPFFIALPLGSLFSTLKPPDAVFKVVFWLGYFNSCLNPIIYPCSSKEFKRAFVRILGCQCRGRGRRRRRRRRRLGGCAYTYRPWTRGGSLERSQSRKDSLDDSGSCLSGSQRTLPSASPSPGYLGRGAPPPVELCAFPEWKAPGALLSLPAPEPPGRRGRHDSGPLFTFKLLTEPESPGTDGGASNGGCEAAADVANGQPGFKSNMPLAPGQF

Adrenergic receptor beta = Adrenergic receptor beta (Homo sapiens, UniProt P08588+P07550+P13945); experiment: In vitro binding affinity of compound against neuronal Beta adrenergic receptor; format: protein assay
D(2) dopamine receptor = D(2) dopamine receptor (Homo sapiens, UniProt P14416); experiment: In vitro binding affinity of compound against neuronal Dopamine receptor D2
D(1A) dopamine receptor = D(1A) dopamine receptor (Homo sapiens, UniProt P21728); experiment: In vitro binding affinity of compound against dopamine neuronal Dopamine receptor D1
[3] = target: GABA-A receptor; anion channel; experiment: In vitro binding affinity for neuronal GABA-A receptor; format: protein-complex assay
Histamine H1 receptor = Histamine H1 receptor (Homo sapiens, UniProt P35367); experiment: In vitro binding affinity of compound against histamine H1 neuronal receptor
Mus musculus [4] = experiment: In vivo minimum effective dose of compound to block the apomorphine-induced climbing behavior in mice after peroral administration; format: functional
[5] = target: Muscarinic acetylcholine receptor; experiment: In vitro binding affinity of compound against muscarinic neuronal receptor; format: protein assay
[6] = target: T2, Adrenergic receptor alpha-2 (Homo sapiens, UniProt P08913+P18825+P18089); experiment: In vitro binding affinity of compound against neuronal alpha-2 adrenergic receptor; format: protein assay
T2 sequence (P08913 whole entry): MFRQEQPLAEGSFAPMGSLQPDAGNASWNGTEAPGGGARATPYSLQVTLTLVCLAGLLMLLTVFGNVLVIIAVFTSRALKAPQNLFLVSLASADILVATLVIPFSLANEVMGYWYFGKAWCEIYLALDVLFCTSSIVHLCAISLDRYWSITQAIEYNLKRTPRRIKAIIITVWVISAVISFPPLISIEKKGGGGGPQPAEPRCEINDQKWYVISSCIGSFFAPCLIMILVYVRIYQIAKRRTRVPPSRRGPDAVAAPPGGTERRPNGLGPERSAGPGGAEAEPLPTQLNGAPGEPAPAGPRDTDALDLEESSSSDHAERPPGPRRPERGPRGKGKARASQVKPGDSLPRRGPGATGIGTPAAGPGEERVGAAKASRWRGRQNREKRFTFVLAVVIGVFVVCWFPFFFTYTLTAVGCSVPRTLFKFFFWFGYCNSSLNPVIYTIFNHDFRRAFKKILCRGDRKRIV
T2 sequence (P18825 whole entry): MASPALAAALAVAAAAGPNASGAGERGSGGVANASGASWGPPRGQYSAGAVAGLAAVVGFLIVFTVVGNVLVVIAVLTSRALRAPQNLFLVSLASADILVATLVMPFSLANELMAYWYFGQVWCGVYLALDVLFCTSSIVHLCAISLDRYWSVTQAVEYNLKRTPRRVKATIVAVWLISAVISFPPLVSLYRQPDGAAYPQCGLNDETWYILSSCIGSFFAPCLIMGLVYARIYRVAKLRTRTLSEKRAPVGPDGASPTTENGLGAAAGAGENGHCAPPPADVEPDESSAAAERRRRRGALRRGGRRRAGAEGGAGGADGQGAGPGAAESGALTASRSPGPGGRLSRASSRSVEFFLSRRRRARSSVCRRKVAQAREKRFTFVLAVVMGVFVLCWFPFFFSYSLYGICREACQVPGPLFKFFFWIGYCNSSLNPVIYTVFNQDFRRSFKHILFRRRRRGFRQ
T2 sequence (P18089 whole entry): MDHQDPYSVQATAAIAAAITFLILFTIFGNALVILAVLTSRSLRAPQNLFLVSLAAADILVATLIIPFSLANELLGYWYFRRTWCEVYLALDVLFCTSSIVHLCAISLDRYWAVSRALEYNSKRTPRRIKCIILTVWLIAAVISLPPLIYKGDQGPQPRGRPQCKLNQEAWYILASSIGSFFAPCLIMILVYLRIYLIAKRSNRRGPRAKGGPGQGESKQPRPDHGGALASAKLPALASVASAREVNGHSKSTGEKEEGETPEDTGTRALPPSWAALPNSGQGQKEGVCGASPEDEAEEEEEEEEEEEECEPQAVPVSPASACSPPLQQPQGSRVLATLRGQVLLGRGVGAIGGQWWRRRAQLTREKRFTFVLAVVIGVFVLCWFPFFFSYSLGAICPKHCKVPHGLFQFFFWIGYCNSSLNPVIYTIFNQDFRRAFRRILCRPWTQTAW

[7] = target: GABA-A receptor; anion channel; experiment: In vitro binding affinity for neuronal GABA-A benzodiazepine receptor; format: protein-complex assay
Mus musculus [8] = experiment: In vivo minimum effective dose of compound to block the apomorphine-induced climbing behavior in mice after intravenous administration; format: functional
Mus musculus [9] = experiment: In vivo minimum effective dose of compound to block the apomorphine-induced climbing behavior in mice after subcutaneous administration; format: functional
Rattus norvegicus [10] = experiment: In vivo minimum effective dose of compound to block the conditioned avoidance behavior in rats after intravenous administration; format: functional
Rattus norvegicus [11] = experiment: In vivo minimum effective dose of compound to block the conditioned avoidance behavior in rats after peroral administration; format: functional

Sequence of D(2) dopamine receptor (P14416 whole entry): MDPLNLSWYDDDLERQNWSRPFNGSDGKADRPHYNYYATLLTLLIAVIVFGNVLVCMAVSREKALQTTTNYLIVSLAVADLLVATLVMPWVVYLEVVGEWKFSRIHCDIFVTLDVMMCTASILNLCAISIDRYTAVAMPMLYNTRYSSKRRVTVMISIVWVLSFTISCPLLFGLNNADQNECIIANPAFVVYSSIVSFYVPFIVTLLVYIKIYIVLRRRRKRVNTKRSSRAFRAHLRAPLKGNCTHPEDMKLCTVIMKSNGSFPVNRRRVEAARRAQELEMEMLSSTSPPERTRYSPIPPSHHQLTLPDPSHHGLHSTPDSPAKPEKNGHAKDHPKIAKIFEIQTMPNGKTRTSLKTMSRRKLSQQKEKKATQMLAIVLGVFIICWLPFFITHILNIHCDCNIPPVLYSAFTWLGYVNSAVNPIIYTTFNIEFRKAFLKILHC
Sequence of D(1A) dopamine receptor (P21728 whole entry): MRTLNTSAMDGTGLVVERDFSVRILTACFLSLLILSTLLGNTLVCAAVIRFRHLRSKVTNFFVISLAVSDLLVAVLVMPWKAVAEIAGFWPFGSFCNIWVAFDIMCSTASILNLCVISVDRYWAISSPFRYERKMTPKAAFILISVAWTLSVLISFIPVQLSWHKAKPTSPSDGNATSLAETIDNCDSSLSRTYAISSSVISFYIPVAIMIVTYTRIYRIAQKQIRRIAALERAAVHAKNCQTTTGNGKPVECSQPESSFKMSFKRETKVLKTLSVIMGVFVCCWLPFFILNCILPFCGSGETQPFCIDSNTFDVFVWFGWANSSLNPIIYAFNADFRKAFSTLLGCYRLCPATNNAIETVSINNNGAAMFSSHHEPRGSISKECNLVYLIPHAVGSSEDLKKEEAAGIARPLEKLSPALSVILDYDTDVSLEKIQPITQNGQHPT
Sequence of Histamine H1 receptor (P35367 whole entry): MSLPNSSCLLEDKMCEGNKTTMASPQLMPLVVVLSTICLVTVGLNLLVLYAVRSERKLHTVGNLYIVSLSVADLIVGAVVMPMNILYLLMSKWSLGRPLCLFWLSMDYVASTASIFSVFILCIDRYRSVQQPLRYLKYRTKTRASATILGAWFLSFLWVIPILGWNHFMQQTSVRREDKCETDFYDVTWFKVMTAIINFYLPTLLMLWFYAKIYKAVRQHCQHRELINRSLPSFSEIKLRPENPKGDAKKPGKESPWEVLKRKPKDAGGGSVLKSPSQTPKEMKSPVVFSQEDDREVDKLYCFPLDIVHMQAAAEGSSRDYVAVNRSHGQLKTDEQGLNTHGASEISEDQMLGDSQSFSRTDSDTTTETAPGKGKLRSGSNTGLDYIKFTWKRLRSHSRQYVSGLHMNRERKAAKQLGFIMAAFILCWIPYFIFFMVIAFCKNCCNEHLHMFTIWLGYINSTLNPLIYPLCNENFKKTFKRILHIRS

Ki [1]	Ki [2]	Ki (Adrenergic receptor beta)	pKi (D(2) dopamine receptor)	pKi (D(1A) dopamine receptor)	pKi [3]	pKi (Histamine H1 receptor)	Ki [5]	Ki [6]	pKi [7]	Compound	EDmin (Mus musculus [4])	EDmin (Mus musculus [8])	EDmin (Mus musculus [9])	EDmin (Rattus norvegicus [10])	EDmin (Rattus norvegicus [11])
0.018 µM	0.012 µM	> 10 µM	7.66	7.18	< 5.00	8.22	0.501 µM	0.783 µM	< 6.00	CN1CCN(C2=Nc3ccccc3Nc3sc(CO)cc32)CC1	20 mg/kg				
0.112 µM	0.266 µM	> 10 µM	6.92	6.40	< 5.00	7.06	0.662 µM	> 10 µM	< 5.00	Cc1cc2c(s1)Nc1ccccc1N=C2N1CC[N+](C)([O-])CC1		>10 mg/kg	12.5 mg/kg	>4 mg/kg	>25 mg/kg
0.023 µM	0.08 µM	> 10 µM	8.05	6.69	< 5.00	7.66	0.333 µM	1 µM	< 5.00	Cc1cc2c(s1)Nc1ccccc1N=C2N1CCNCC1 [DESMETHYLOLANZAPINE]		>10 mg/kg	50 mg/kg	>4 mg/kg	>25 mg/kg

Compound	Ki [1]	Ki [2]	Ki (Adrenergic receptor beta)	pKi (D(2) dopamine receptor)	pKi (D(1A) dopamine receptor)	pKi [3]	pKi (Histamine H1 receptor)	Ki [5]	Ki [6]	pKi [7]	EDmin (Mus musculus [4])	EDmin (Mus musculus [8])	EDmin (Mus musculus [9])	EDmin (Rattus norvegicus [10])	EDmin (Rattus norvegicus [11])
Cc1cc2c(s1)Nc1ccccc1N=C2N1CCN(C)CC1 [OLANZAPINE]						< 5.00				< 5.00	2.5 mg/kg	1 mg/kg	0.625 mg/kg	0.25 mg/kg	2.5 mg/kg
